The source of these data is patent US9090583B2, “Benzopyrone estrogen receptor regulator” (BEIJING SHENOGEN PHARMA GROUP LTD., priority 2010, dated 2015).

For orientation: IC50 means the midpoint of a concentration-inhibition curve.

Converted amounts (≈) assume the structure as drawn. Read-outs that look alike come from different tables or passages of the source.

One test relates to MDA-MB-231 cells. The experiment in a line: CellTiter-Glo Luminescent Cell Viability Assay on ER-negative breast cancer MDA-MB-231 cells. Conditions: average ± standard deviation when tested more than 3 times, read-out: Inhibition of the viability of breast cancer cells, IC50. Format: cell-based. In short, it runs like this:
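Cells seeded at 6×10^3 per well in DMEM with 10% FCS and exposed 72 h to compound at 0 to 100 μM (twelve concentrations, DMSO vehicle). Viability measured by CellTiter-Glo luminescence.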

The next test relates to MCF7 cells. The experiment in a line: CellTiter-Glo Luminescent Cell Viability Assay on ER-positive breast cancer MCF-7 cells. Format: cell-based, human. Conditions: 72 hours, average ± standard deviation when tested more than 3 times, read-out: Inhibition of the viability of breast cancer cells, IC50. In short, it runs like this:
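MCF7 cells (DMEM, 10% FCS, 37 °C) treated 72 h with compound at 0–100 μM (0.3, 0.5, 1, 2, 3, 5, 10, 20, 30, 50, 100 μM). Viability measured by CellTiter-Glo luminescence.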

For another test, the system named is HEC-1A cells. The experiment in a line: CellTiter-Glo Luminescent assay on endometrial cancer HEC-1A cells. The class given is cell-based, human. Conditions: 72 hours, read-out: Inhibition of the viability of endometrial cancer cells, IC50. The procedure: CellTiter-Glo® Luminescent Assay to Measure the Inhibitory Activity of the Compounds on In Vitro Growth of Endometrial Cancer HEC-1A Cells
HEC-1A cells are endometrial cancer cell lines only expressing ER-36. Human endometrial cancer HEC-1A cells were obtained from ATCC and maintained in DMEM and 10% fetal calf serum at 37° C., under 5% CO2 atmosphere. The cells were seeded on 96-well plate at a density of 6×10^3 cells per well. HEC-1A cells were treated with a test compound dissolved in DMSO at the concentrations of zero, 0.3 μM, 0.5 μM, 1 μM, 2 μM, 3 μM, 5 μM, 20 μM, 30 μM, 50 μM and 100 μM for 72 hours. Treated cells were examined by CellTiter-Glo® Luminescent Cell Viability Assay Kit (Promega), and luminescence values were recorded with Envision.
In general terms: Cellular ATP, detected with luciferase, serves as a proxy for viable cell number.

The subject of another test is CoC1 cells. The experiment in a line: CellTiter-Glo Luminescent Cell Viability Assay on ovary cancer CoC1 cells. Format: cell-based. The note with it: 72 hours, read-out: Inhibition of the viability of ovary cancer cells, IC50. The procedure:
B: In Vitro CellTiter-Glo® Luminescent Cell Viability Assay on Ovary Cancer CoC1 Cells
The ovary cancer CoC1 cells were obtained from Cancer hospital, Chinese Academy of Medical Sciences and maintained in RPMI-1640 and 10% fetal calf serum at 37° C., under 5% CO2 atmosphere. The cells were seeded on 96-well plate at a density of 6×10^3 cells per well. CoC1 cells were treated with a test compound dissolved in DMSO at the concentrations of zero, 0.3 μM, 0.5 μM, 1 μM, 2 μM, 3 μM, 5 μM, 10 μM, 30 μM, 50 μM and 100 μM for 72 hours. Treated cells were examined by CellTiter-Glo® Luminescent Cell Viability Assay Kit (Promega), and luminescence values were recorded with Envision.

In the next test the test system is K562 cells. The experiment in a line: CellTiter-Glo Luminescent Cell Viability Assay on leukemia K562 cells. The note with it: 72 hours, read-out: Inhibition of the viability of leukemia cells, IC50. Format: cell-based, human. The procedure: A: In Vitro CellTiter-Glo® Luminescent Cell Viability Assay on Leukemia K562 Cells
The leukemia K562 cells were obtained from ATCC and maintained in IMDM and 10% fetal calf serum at 37° C., under 5% CO2 atmosphere. The cells were seeded on 96-well plate at a density of 6×10^3 cells per well. K562 cells were treated with a test compound dissolved in DMSO at the concentrations of zero, 0.3 μM, 0.5 μM, 1 μM, 2 μM, 3 μM, 5 μM, 10 μM, 20 μM, 30 μM, 50 μM and 100 μM for 72 hours. Treated cells were examined by CellTiter-Glo® Luminescent Cell Viability Assay Kit (Promega), and luminescence values were recorded with Envision.

The test system of a further test is HL-60 cells. The experiment in a line: CellTiter-Glo Luminescent Cell Viability Assay on leukemia HL-60 cells. Format: cell-based, human. Conditions: 72 hours, read-out: Inhibition of the viability of leukemia cells, IC50. The procedure: B: In Vitro CellTiter-Glo® Luminescent Cell Viability Assay on Leukemia HL-60 Cells
The leukemia HL-60 cells were obtained from ATCC and maintained in IMDM and 10% fetal calf serum at 37° C., under 5% CO2 atmosphere. The cells were seeded on 96-well plate at a density of 6×10^3 cells per well. HL-60 cells were treated with a test compound dissolved in DMSO at the concentrations of zero, 0.3 μM, 0.5 μM, 1 μM, 2 μM, 3 μM, 5 μM, 10 μM, 20 μM, 30 μM, 50 μM and 100 μM for 72 hours. Treated cells were examined by CellTiter-Glo® Luminescent Cell Viability Assay Kit (Promega), and luminescence values were recorded with Envision.

A further test concerns Molt-4 cells. The experiment in a line: CellTiter-Glo Luminescent Cell Viability Assay on leukemia Molt-4 cells. The class given is cell-based. The note with it: 72 hours, read-out: Inhibition of the viability of leukemia cells, IC50. The procedure: C: In Vitro CellTiter-Glo® Luminescent Cell Viability Assay on Leukemia Molt-4 Cells
The leukemia Molt-4 cells were obtained from ATCC and maintained in RPMI-1640 and 10% fetal calf serum at 37° C., under 5% CO2 atmosphere. The cells were seeded on 96-well plate at a density of 6×10^3 cells per well. […] were treated with a test compound dissolved in DMSO at the concentrations of zero, 0.3 μM, 0.5 μM, 1 μM, 2 μM, 3 μM, 5 μM, 10 μM, 20 μM, 30 μM, 50 μM and 100 μM for 72 hours. Treated cells were examined by CellTiter-Glo® Luminescent Cell Viability Assay Kit (Promega), and luminescence values were recorded with Envision.

A further test has as its system Hep3B2.1-7 cells. The experiment in a line: MTT assay, in vitro growth of liver cancer Hep3B2.1-7 cells. Format: cell-based. The note with it: 72 hours. The procedure: The liver cancer Hep3B2.1-7 cells were obtained from ATCC. Cells were incubated in 1640 culture medium with 5% fetal calf serum and 100 U/ml double-antibody in a cell incubator at 37° C., 5% CO2 atmosphere and passaged via conventional methods. The sample was dissolved in DMSO, formulated into 50 mg/ml stocking solution, and stored at 4° C. The test solutions at 50, 25, 12.5 and 6.25 μg/ml were formulated with culture medium immediately before use.
The adherent cells were digested with cell digestive solution, and then the exfoliated cells were collected and counted. The cell suspension was formulated with 1640 culture medium containing 5% fetal calf serum (5.0×10^4/ml). The cell suspension was seeded on 96-well plate with 100 μl/well, and maintained in a cell incubator at 37° C., 5% CO2 atmosphere for 24 hours. After that, the compounds at various concentrations were added, where solvent was taken as negative control and Taxol as positive control. 10 μl MTT (5 mg/ml) was added after 72 hours. The supernatant was removed after cultivation for 3 hours more, 150 μl DMSO was added and the formazan was dissolved on shaking. OD values were measured at 570 nm after homogeneous mixing, and inhibition rate and IC50 values were calculated based on the mean of OD values from 3 wells.

For the next test, the target named is T1, ER-α36 (Homo sapiens, UniProt P03372).
T1 construct: endogenous in cells; host or cells: HEC-1A human endometrial cancer cells
T1 sequence (P03372 1-310 isoform P03372-4): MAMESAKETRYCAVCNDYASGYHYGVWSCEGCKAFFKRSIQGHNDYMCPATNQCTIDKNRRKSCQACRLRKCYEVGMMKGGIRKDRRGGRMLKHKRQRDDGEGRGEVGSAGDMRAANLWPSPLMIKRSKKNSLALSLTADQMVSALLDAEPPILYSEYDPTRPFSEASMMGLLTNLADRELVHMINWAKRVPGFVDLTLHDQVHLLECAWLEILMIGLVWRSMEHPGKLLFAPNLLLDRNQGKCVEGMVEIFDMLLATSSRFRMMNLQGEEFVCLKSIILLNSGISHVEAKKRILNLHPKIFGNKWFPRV
The experiment in a line: Regulation of ER-α36 protein expression in HEC-1A cells (Western blot). The note with it: serum-depleted HEC-1A cells; 1, 10, 50 and 100 nM; 24 and 48 hours; effect above the concentration of 50 nM. Format: cell-based. The procedure:
Taking endometrial cancer HEC-1A cells as an example, serum-depleted HEC-1A cells were treated with compounds at concentrations of 1, 10, 50 and 100 nM for 24 hours and 48 hours. The treated cells were washed with PBS and lysed with lysis buffer (a mixture of 1*PBS (pH7.4), 1% NP-40, 0.7 mMEDTA, and protease inhibitor from Roche). The lysates were boiled for 5 minutes in a SDS gel loading buffer (25 mM Tris-Cl pH 6.8; 10% SDS; 2% glycerol; 20% β-mercaptoethanol; 0.01% bromophenol blue) and separated on a 10% SDS-PAGE gel. After electrophoresis, the proteins were transferred onto PVDF membrane (Millipore Transfer Membrane). The membrane was probed with Rabbit anti-ER36 antibody which is specific to 20 amino acid polypeptides at C-terminus of ER-α36. Then the membrane was incubated with an HRP-conjugated secondary antibody and visualized with ECL detection reagents.
A general note: In western blotting, separated proteins are transferred to a membrane and probed.

Turning to “2-(-fluoro-4-chlorophenyl)-5,7-dihydroxy-3-methoxy-6,8-di(3-methyl-2-buten-1-yl)-4H-benzopyran-4-one [Compound 5]”, the half-maximal inhibitory concentration (IC50) stood at 7.03 ± 1.06 µM in the test on MDA-MB-231 cells (72 hours); 6.73 ± 1.58 µM in the test on MCF7 cells; 7.14 µM with HEC-1A cells; 6.91 µM in the test on CoC1 cells; 12 µM in the test with K562 cells; 8.96 µM in the test on HL-60 cells. The IC50 in the test on Molt-4 cells stood at 9.13 µM. Besides, the “Inhibition on liver cancer cells, IC50” value in the test on Hep3B2.1-7 cells turned out to be 1.45 µg/mL.
For `COc1c(-c2ccc(C(F)(F)F)c(F)c2)oc2c(CC=C(C)C)c(O)c(CC=C(C)C)c(O)c2c1=O` [Compound 6, 2-(3-fluoro-4-trifluoromethylphenyl)-5,7-dihydroxy-3-methoxy-6,8-di(3-methyl-2-butylene-1-yl)-4H-benzopyran-4-one], the concentration for half-maximal inhibition (IC50) was 7.06 ± 2.13 µM in the test on MDA-MB-231 cells (72 hours); 5.14 ± 0.47 µM in the test with MCF7 cells; 4.02 µM with HEC-1A cells; more than 100 µM in the test with K562 cells; more than 100 µM in the test with HL-60 cells; more than 100 µM in the test with Molt-4 cells.
`COc1c(-c2ccc(C(F)(F)F)cc2)oc2c(CC=C(C)C)c(O)c(CC=C(C)C)c(O)c2c1=O` [Compound 15, 2-(4-trifluoromethylphenyl)-5,7-dihydroxy-3-methoxy-6,8-di(3-methyl-2-butylene-1-yl)-4H-benzopyran-4-one]: the IC50 in the test with MDA-MB-231 cells (72 hours) amounted to 9.91 ± 0.11 µM; with MCF7 cells, 8.28 ± 2.2 µM; in the test on HEC-1A cells, 8.35 µM; in the test on K562 cells, 12.4 µM; with HL-60 cells, 15.7 µM; with Molt-4 cells it was 13.2 µM. The “Inhibition on liver cancer cells, IC50” value with Hep3B2.1-7 cells was 0.00138 µg/mL.
In the case of `COc1c(-c2ccc3nccnc3c2)oc2c(CC=C(C)C)c(O)c(CC=C(C)C)c(O)c2c1=O` [Compound 18, 2-(quinoxalin-6-yl)-5,7-dihydroxy-3-methoxy-6,8-di(3-methyl-2-butylene-1-yl)-4H-benzopyran-4-one], the IC50 was 11.9 ± 0.4 µM in the test on MDA-MB-231 cells (72 hours); 12.03 ± 0.09 µM with MCF7 cells; 13.8 µM in the test on HEC-1A cells; more than 100 µM in the test with K562 cells; more than 100 µM in the test on HL-60 cells; 14.2 µM in the test on Molt-4 cells.
Take `CC(C)=CCc1c(O)c(CC=C(C)C)c2oc(-c3ccc(C(F)(F)F)cc3)c(O)c(=O)c2c1O` [Compound 98, 2-(4-trifluoromethylphenyl)-3,5,7-trihydroxy-6,8-di(3-methyl-2-buten-1-yl)-4H-benzopyran-4-one]: the IC50 with MDA-MB-231 cells (Homo sapiens, MDA-MB-231, 72 h) is 1.62 µM; in the test with Hep3B2.1-7 cells (read-out: Inhibition on liver cancer cells, IC50), 0.0144 µg/mL (≈ 0.0303 µM). At ER-α36, the “expression of ER-36 in cells” value is recorded as “dramatically reduced”.
